What all share (format): in vitro ADME
One data set has as its target T1, CYP2C19 (Homo sapiens, UniProt P33261).
T1 construct: from tissue; host or cells: liver microsomes (HLM)
Description: CYP inhibition in HLM, CYP2C19. Particulars: read-out: CYP inhibition (IC50 um) 2C19. The method, then:
(§1) 0.1 M potassium phosphate buffer (K-buffer), pH 7.4 was preheated. K-buffer was prepared by mixing 9.5 mL Stock A into 40.5 mL Stock B. The total volume was brought to 500 mL with Milli-Q water. The buffer was titrated with KOH or H3PO4 to pH 7.4. Stock A (1 M monobasic potassium phosphate) was prepared by adding 136.5 g of monobasic potassium phosphate into 1 L of Milli-Q water. Stock B (1 M dibasic potassium phosphate) was prepared by adding 174.2 g of dibasic potassium phosphate in 1 L of Milli-Q water.
(§2) Serial dilution for test compound and reference inhibitors (400×) was prepared in a 96-well plate. 8 μL of 10 mM test compounds was transferred to 12 μL of ACN. Inhibitor spiking solution was prepared for CYP1A2, CYP2C9 and CYP2D6 in cocktail by adding 12 μL of 1 mM α-Naphthoflavon, 10 μL of 40 mM Sulfaphenazole, 10 μL of 10 mM Quinidine, and 8 μL of DMSO. Individual inhibitor spiking solution for CYP3A4 and CYP2C19 was prepared by adding 8 μL of DMSO stock to 12 μL of ACN. 1:3 serial dilutions were performed in DMSO:ACN mixture (v/v: 40:60).
(§3) NADPH cofactor was prepared by dissolving 66.7 mg NADPH in 10 mL 0.1 M K-buffer, pH7.4. 4×substrate (2 mL for each isoform) was prepared. HLM was added were required on ice. 0.2 mg/mL HLM solution was prepared using 10 μL of 20 mg/mL to 990 μL of 0.1 M K-buffer on ice. 400 μL of 0.2 mg/mL HLM were added to the assay wells and then 2 μL of 400×test compound set were added into the designated wells on ice. 200 μL of 0.2 mg/mL HLM was added to the assay wells and followed by 1 μL of serially diluted reference inhibtor solution into the designated wells on ice. The following solutions were added in duplicated in a 96-well plate on ice: 30 μL of 2×test compound and reference compound in 0.2 mg/mL HLM solution and 15 μL of 4×substrate solution. The 96-well assay plate and NADPH solution were pre-incubated at 37° C. for 5 minutes. 15 μL of pre-warmed 8 mM NADPH solution was added to into the assay plates to initiate the reaction. The assay plate was incubated at 37° C. 5 mins, 10 mins, and 45 mins. […]

The next data set is described as follows: RBC partitioning study. Particulars: rat. The method, then:
0.05 M sodium phosphate buffer, pH 7.4 was prepared using the following steps. Stock A, stock B, and stock C solutions were prepared by adding 156 g of monobasic sodium phosphate in 1 L of Milli-Q water (1.0 M), 142 g of dibasic sodium phosphate in 1 L of Milli-Q water (1.0 M), and 58.5 g of sodium chloride in 1 L of Milli-Q water (1.0 M) respectively. 20.25 mL of Stock B and 4.75 mL of Stock A were added to 35 mL of Stock C and the total volume was brought to near 500 mL with Milli-Q water. The resulting buffer solution was titrated with NaOH or H3PO4 to pH 7.4 and the total volume was brought to 500 mL. The 0.05 M sodium phosphate buffer was preheated at 37° C.
Fresh blank plasma preparation and hematocrit determination. A tube containing whole blood was centrifuged at 4000 rpm for 10 minuts. The plasma was harvested was stored. Hematocrit (the volume of red blood cells to the total volume of whole blood) was determined using the formula:
Hematocrit=Vred cells/Vblood=(Vblood−Vplasma)/Vblood
Vblood: the volume of whole blood applied
Vplasma: the volume of plasma measured after centrifugation
Preparation of reference and test compound spiking solutions in plasma. 1.25 mM spiking solution A was prepared by adding add 10 μL of 10 mM reference into 70 μL of plasma (8-fold dilution).
Preparation of reference and test compound in whole blood and plasma. For whole blood samples, 12 μL of spiking solution B (prepared above) was added to 288 μL of whole blood (25-fold dilution). For plasma samples, 6 μL of spiking solution B was added to 144 μL of plasma (25-fold dilution). The assay procedure used is as follows. The assay plate was placed in an incubator at 37° C. for 60 minutess. 300 μL of compound spiking solution in whole blood from above was removed and centrifuged at 4000 rpm for 10 minutes. Subsequently plasma was harvested. 50 μL of plasma sample was removed and 150 μL of acetonitrile (containing IS) was added and vortexed for 5 min. The sample was centrifuged at 6000 rpm for 15 minutes. The supernatant was removed and analyzed by LC/MS.

A further data set concerns the target T2, CYP2D6 (Homo sapiens, UniProt P10635).
T2 construct: from tissue; host or cells: liver microsomes (HLM)
Description: CYP inhibition in HLM, CYP2D6. The conditions noted are these: read-out: CYP inhibition (IC50 um) 2D6. On the procedure:
as §1, §2, §3

For a further data set, the target named is T3, CYP2C9 (Homo sapiens, UniProt P11712).
T3 construct: from tissue; host or cells: liver microsomes (HLM)
T3 sequence (P11712 whole entry): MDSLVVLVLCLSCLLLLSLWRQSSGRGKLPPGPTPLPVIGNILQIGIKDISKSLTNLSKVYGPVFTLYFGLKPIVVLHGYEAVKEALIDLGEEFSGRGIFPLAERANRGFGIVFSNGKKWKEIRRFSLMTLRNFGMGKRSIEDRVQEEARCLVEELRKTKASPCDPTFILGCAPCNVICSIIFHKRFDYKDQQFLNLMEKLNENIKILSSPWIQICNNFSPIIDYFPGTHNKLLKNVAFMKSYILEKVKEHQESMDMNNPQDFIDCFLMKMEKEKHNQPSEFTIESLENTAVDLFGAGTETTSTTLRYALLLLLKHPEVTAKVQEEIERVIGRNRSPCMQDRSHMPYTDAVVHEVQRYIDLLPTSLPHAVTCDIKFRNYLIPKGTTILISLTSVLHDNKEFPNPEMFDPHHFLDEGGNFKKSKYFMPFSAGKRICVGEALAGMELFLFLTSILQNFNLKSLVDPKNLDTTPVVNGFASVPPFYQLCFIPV
As to the kind of experiment: CYP inhibition in HLM, CYP2C9. Particulars: read-out: CYP inhibition (IC50 um) 2C9. The method, then:
as §1, §2, §3

The nature of data set [1]: Metabolic stability in liver microsomes (rat). Particulars: for CLint scaled at 1 μM: pH 7.4; for half-life at 1 μM: pH 7.4, read-out: Metabolic stability T½. On the procedure:
Buffers A-C were prepared for use in the metabolic study. The buffers were as follows: Buffer A: 1.0 L of 0.1 M monobasic Potassium Phosphate buffer containing 1.0 mM EDTA; Buffer B: 1.0 L of 0.1 M Dibasic Potassium Phosphate buffer containing 1.0 mM EDTA; and Buffer C: 0.1 M Potassium Phosphate buffer, 1.0 mM EDTA, pH 7.4 by titrating 700 mL of buffer B with buffer A while monitoring with the pH meter.
Ketanserin was used as the reference compound. Reference compound and test compound spiking solutions (500 μM spiking solution) were prepared by adding 10 μL of 10 mM DMSO stock solution into 190 μL ACN. 1.5 μL of 500 μM spiking solution (0.75 mg/mL) and 18.75 μL of 20 mg/mL liver microsomes were added into 479.75 μL of Buffer C on ice.
A 6 mM NADPH stock solution was prepared by dissolving an appropriate amount of NADPH into buffer C. 30 μL of 1.5 μM spiking solution containing 0.75 mg/mL microsomes solution was dispensed to the assay plates designated for different time points (0-, 5-, 15-, 30-, 45-min) on ice. […] All the other plates were pre-incubated at 37° C. for 5 minutes. 15 μL of 6 mM NADPH stock solution was added to the plates to start the reaction and time. At 5-min, 15-min, 30-min, and 45-min, 135 μL of ACN containing internal standard were added to the wells of corresponding plates, respectively, to stop the reaction. […]

Here are results for three molecules from US20240174693A1, “SOMATOSTATIN RECEPTOR SUBTYPE 4 (SSTR4) AGONISTS AND THEIR APPLICATIONS” (Humanwell Pharmaceutical US, priority 2022, published 2024).

T2 sequence (P10635 whole entry): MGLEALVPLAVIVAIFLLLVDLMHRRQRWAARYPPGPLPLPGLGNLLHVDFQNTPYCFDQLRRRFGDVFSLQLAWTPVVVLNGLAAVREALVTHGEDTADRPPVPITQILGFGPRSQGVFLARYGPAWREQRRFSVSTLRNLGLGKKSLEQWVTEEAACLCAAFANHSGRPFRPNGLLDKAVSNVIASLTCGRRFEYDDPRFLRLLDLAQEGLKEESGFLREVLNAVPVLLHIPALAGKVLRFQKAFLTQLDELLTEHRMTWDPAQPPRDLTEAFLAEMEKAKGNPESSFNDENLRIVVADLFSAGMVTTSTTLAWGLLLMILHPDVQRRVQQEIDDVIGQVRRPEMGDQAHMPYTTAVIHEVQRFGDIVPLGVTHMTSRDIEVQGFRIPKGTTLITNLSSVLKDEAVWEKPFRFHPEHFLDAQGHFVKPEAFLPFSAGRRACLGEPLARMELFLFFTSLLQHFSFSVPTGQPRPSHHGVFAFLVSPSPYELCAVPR
T1 sequence (P33261 whole entry): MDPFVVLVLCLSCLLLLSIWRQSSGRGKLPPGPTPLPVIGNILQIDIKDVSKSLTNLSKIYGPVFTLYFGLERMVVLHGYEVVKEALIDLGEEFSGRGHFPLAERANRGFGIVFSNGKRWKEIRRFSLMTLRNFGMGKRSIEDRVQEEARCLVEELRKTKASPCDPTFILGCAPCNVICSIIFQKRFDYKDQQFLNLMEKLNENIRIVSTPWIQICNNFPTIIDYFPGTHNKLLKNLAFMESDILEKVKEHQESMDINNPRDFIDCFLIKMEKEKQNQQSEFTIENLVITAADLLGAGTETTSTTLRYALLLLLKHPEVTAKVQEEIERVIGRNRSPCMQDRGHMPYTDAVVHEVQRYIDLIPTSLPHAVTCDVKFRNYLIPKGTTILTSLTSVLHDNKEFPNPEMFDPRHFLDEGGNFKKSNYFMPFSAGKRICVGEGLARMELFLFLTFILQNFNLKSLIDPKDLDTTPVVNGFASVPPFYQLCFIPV

For `CC(C)(NC(=O)[C@H]1[C@@H]2CNC[C@H]1C2)c1ncc2c(Cl)cccn12` [Compound 7, (1R,5S,6r)-N-(2-(8-chloroimidazo[1,5-a]pyridin-3-yl)propan-2-yl)-3-azabicyclo[3.1.1]heptane-6-carboxamide], the concentration for half-maximal inhibition (IC50) at CYP2C19, at CYP2D6 and at CYP2C9 was above 10 µM each time. In the data set “RBC partitioning study”, the “RBC Partitioning Study KRBC/PL” value is listed as 1.15. Also, the CLint scaled at 1 μM in data set [1] is 18.4 mL/min/kg. Also, in data set [1], the half-life at 1 μM was determined as 2.25 h.
With `CC(C)(NC(=O)[C@H]1[C@@H]2CNC[C@H]1C2)c1ncc2c(Br)cccn12` [Compound 8, (1R,5S,6r)-N-(2-(8-bromoimidazo[1,5-a]pyridin-3-yl)propan-2-yl)-3-azabicyclo[3.1.1]heptane-6-carboxamide], the concentration for half-maximal inhibition (IC50) on CYP2C19, on CYP2D6 and at CYP2C9 was above 10 µM throughout. The “RBC Partitioning Study KRBC/PL” value in “RBC partitioning study” is given as 0.94. For the same molecule, the CLint scaled at 1 μM in data set [1] worked out at 2.98 mL/min/kg. Also, in data set [1], the half-life at 1 μM worked out at 9.71 h.
Consider `CC(C)(NC(=O)[C@H]1[C@@H]2CNC[C@H]1C2)c1nc(C2CC2)c2ccccn12` [Compound 9, (1R,5S,6r)-N-(2-(1-cyclopropylimidazo[1,5-a]pyridin-3-yl)propan-2-yl)-3-azabicyclo[3.1.1]heptane-6-carboxamide], for which the concentration for half-maximal inhibition (IC50) on CYP2C19, on CYP2D6 and at CYP2C9 was above 10 µM each time. In the data set “RBC partitioning study”, the “RBC Partitioning Study KBlood/PL” value was 1.05. The “RBC Partitioning Study KRBC/PL” value in “RBC partitioning study” is on record as 1.09. The CLint scaled at 1 μM in data set [1] stood at 1.73 mL/min/kg. For the same molecule, the half-life at 1 μM in data set [1] was found to be 23.9 h.

As a reminder, the IC50 is the concentration that inhibits the measured activity by half. The term CLint scaled denotes the capacity of the preparation to metabolise the compound, expressed as a volume cleared per time. Read a high CLint scaled as faster metabolism.
